According to patent publication US10391068B2 (priority 2012, dated 2019):
pIC50, pKd: −log10 of the molar value. Several values for one entry are separate records, joined by “and”; a condition that tells them apart may be missing. Identical values can stand only once. Entries after “also recorded” stand apart in the source; their conditions may differ. Like-named read-outs stand apart in the source and are kept apart here.

Key:
PrP^23-230 = PrP^23-230 (Mus musculus, UniProt P04925); format: binding
moPrP (23-230) [1] = biological target: T1, moPrP (23-230) (Mus musculus, UniProt P04925); format: biochemical
recombinant mouse PrP^C = recombinant mouse PrP^C (Mus musculus, UniProt P04925); test: biochemical; format: binding
BSA = BSA (Bos taurus, UniProt P02769); format: binding
[2] = biological target: Recombinant C-PrP (residues 120-230) (Mus musculus, UniProt P04925); format: binding
myoglobin = myoglobin (Equus caballus, UniProt P68082); format: binding
recombinant C-PrP = recombinant C-PrP (Mus musculus, UniProt P04925); test: biochemical; format: binding
[3] = biological target: Aβ oligomers binding to PrP^C (Mus musculus, UniProt P04925); test: biochemical
N-PrP (23-111) [4] = biological target: T2, N-PrP (23-111) (Mus musculus, UniProt P04925); format: binding
human recombinant PrP^C = human recombinant PrP^C (Homo sapiens, UniProt P04156); test: biochemical; format: binding
C-PrP (120-230) = C-PrP (120-230) (Mus musculus, UniProt P04925); format: binding
[5] = tested on: Aβ oligomer binding to PrP-expressing HEK cells; format: cell-based
[6] = tested on: postnatal mouse hippocampal neurons treated with Aβ oligomers; format: cell-based
bovine serum albumin = bovine serum albumin (Bos taurus, UniProt P02769); test: biochemical
[7] = format: binding; settings: read-out: KD (did not bind detectably)
[8] = tested on: Aβ oligomer inhibition of LTP in hippocampal slices; format: cell-based, mice
[9] = biological target: T3, N-PrP / C-PrP interaction (Mus musculus, UniProt P04925); format: biochemical
N-PrP (23-111) [10] = biological target: T2, N-PrP (23-111); format: biochemical
moPrP (23-230) [11] = format: binding, mouse
[12] = biological target: T3, N-PrP / C-PrP interaction; format: binding
moPrP (23-230) [13] = biological target: T1, moPrP (23-230)
[14] = biological target: Aβ oligomers binding to N-PrP (Mus musculus, UniProt P04925)
[15] = biological target: Aβ oligomers binding to PrP^C (Homo sapiens, UniProt P04156)

Chain of bovine serum albumin (P02769 25-607): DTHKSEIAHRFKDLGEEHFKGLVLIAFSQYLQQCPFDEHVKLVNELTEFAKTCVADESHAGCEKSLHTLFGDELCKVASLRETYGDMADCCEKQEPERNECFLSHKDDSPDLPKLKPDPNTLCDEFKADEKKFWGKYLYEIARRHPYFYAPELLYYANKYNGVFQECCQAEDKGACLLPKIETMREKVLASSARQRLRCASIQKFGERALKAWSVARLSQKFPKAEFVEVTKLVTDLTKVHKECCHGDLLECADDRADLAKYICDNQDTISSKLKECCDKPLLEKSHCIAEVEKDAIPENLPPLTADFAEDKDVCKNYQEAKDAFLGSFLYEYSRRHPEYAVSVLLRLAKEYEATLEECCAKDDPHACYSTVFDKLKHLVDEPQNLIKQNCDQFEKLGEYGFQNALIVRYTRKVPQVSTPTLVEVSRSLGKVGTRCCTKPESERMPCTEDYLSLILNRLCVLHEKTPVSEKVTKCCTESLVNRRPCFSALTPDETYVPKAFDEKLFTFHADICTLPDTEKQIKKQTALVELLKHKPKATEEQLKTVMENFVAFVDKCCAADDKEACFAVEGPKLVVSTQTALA
Chain of myoglobin (P68082 2-154): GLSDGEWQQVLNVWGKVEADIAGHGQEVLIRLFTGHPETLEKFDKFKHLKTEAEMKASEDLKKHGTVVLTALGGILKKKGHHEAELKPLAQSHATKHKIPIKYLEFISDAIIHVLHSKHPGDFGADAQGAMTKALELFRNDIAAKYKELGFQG

FC(F)(F)c1cccc(COn2c(-c3ccccc3)nc3ncccc32)c1 [DS15, reference compound]
binding to PrP^C by EqD (in words) (PrP^23-230): No binding was observed | Trp fluorescence of full-length PrP (in words) (moPrP (23-230) [1]): did not produce any change in Trp fluorescence; also recorded: did not alter the trp fluorescence

CC(C)(C)NC(=S)N/N=C1\[C@@H](O)[C@@H](O)[C@@H](O)[C@H](O)[C@H]1O [DS210]
pKd (recombinant mouse PrP^C): 4.20 | binding to PrP^C by SPR (in words) (recombinant mouse PrP^C): bind to PrP^C

O=C(O)c1cc(NC(=S)NN=C2C(O)C(O)C(O)C(O)C2O)ccc1-c1c2ccc(=O)cc-2oc2cc(O)ccc12 [DS104, (Z)—N-(3′,6′-dihydroxy-3-oxo-3H-spiro[isobenzofuran-1,9′-xanthen]-5-yl)-2-((2R,3R,4S,5R,6S)-2,3,4,5,6-pentahydroxycyclohexylidene)hydrazinecarbothioamide]
binding to BSA by FP (BSA): not detected | pKd [2]: 5.40 | binding to myoglobin by FP (myoglobin): not detected

2R,3S,4S,5S,6R)-2-(hydroxymethyl)-6-[β-hydroxyphenyl)amino]tetrahydro-2H-pyran-3,4,5-triol [DS5]
binding to PrP^C by SPR (in words) (recombinant mouse PrP^C): lower affinity; also recorded: also bind to PrP^C | competition with / displacement of DS104 (in words) (recombinant C-PrP): able to displace DS104; also recorded: competed with DS104

O=C(CN1CCCC1)Nc1ccc(Cc2ccc(NC(=O)CN3CCCC3)cc2)cc1 [GN8, N,N′-(methylenedi-4,1-phenylene)bis[2-(1-pyrrolidinyl)acetamide], reference compound]
pKd (recombinant mouse PrP^C): < 3.00 | binding to PrP^C by SPR (in words) (recombinant mouse PrP^C): does not bind; also recorded: no detectable binding; also recorded: failed to bind; also recorded: failed to detect binding | binding to PrP^C by EqD (in words) (PrP^23-230): No binding was observed; also recorded: failed to detect binding | inhibition of Aβ oligomer binding to PrP^C by SPR (in words) [3]: does not bind PrPC in the SPR assay used for studying the binding of PrPC ligands to PrPC or inhibit binding of Aβ oligomers to PrP^C

OC[C@@H](O)[C@H](O)[C@@H](O)c1nnn[nH]1 [DS40, (1S,2R,3R)-1-(1H-tetrazol-5-yl)butane-1,2,3,4-tetrol]
binding to N-PrP (in words) (N-PrP (23-111) [4]): failed to bind | pKd (human recombinant PrP^C): 6.10 | binding to human versus mouse PrP^C (in words) (human recombinant PrP^C): identical affinity | binding to PrP^C by SPR (in words) (recombinant mouse PrP^C): lower affinity; also recorded: bind to PrP^C | rate of dissociation (Koff) from PrP^C (in words) (recombinant mouse PrP^C): particularly slow rate of dissociation | binding to C-PrP (in words) (C-PrP (120-230)): bound | competition with / displacement of DS104 (in words) (recombinant C-PrP): able to displace DS104; also recorded: competed with DS104

NC(=S)NN=C1C(O)C(O)C(O)C(O)C1O [DS26, 2-(2R,3S,5R,6S-pentahydroxycyclohexylidene)hydrazinecarbothioamide]
binding to N-PrP (in words) (N-PrP (23-111) [4]): failed to bind | pKd (human recombinant PrP^C): 6.24 | binding to human versus mouse PrP^C (in words) (human recombinant PrP^C): identical affinity | estimated IC50 on cells (in words) [5]: higher than the corresponding value observed by SPR and ELISA | inhibition of Aβ oligomer binding to PrP^C on cells (in words) [5]: dose-dependent inhibition of Aβ binding; also recorded: inhibits binding of Aβ oligomers to PrP^C on cells | levels of synaptic markers after Aβ oligomers (in words) [6]: significantly rescued the levels of all the synaptic markers; also recorded: blocks the toxic effects of Aβ oligomers | levels of synaptic markers with compound alone (in words) [6]: not significantly altered | pKd (bovine serum albumin): < 3.00 | pKd [7]: < 3.00 | DS26 remained bound to PrP^C after washing (recombinant mouse PrP^C): 70% | pKd (recombinant mouse PrP^C): 6.24 | binding to PrP^C by SPR (in words) (recombinant mouse PrP^C): sub-micromolar affinity; also recorded: higher affinity; also recorded: stereospecific; also recorded: bound; also recorded: binds; also recorded: bind to PrP^C | koff (recombinant mouse PrP^C): 0.00014 s⁻¹ | kon (recombinant mouse PrP^C): 245 M⁻¹ s⁻¹ | rate of dissociation (Koff) from PrP^C (in words) (recombinant mouse PrP^C): particularly slow rate of dissociation; also recorded: remarkably slow dissociation kinetics | residence time (recombinant mouse PrP^C; read-out: half-life for the bound state): 83 min | koff (recombinant mouse PrP^C; read-out: koff rate): 0.00014 s⁻¹ | kon (recombinant mouse PrP^C; read-out: kon rate): 245 M⁻¹ s⁻¹ | LTP after Aβ oligomer exposure (in words) [8]: significantly reversed the inhibitory effect of Aβ oligomers on LTP; also recorded: significantly (*p<0.05) enhances LTP after Aβ exposure | LTP with compound alone (in words) [8]: No change in LTP was detected | binding to PrP^C by EqD (in words) (PrP^23-230): retained by PrP^C in the sample chamber | decrease in the concentration of compound in the assay chamber (PrP^23-230): 75% | co-immunoprecipitation of C-PrP with N-PrP (in words) [9]: Co-immunoprecipitation of the two PrP fragments occurred only after incubation with DS26; also recorded: C-PrP was immunoprecipitated with N-PrP only in the presence of DS26 | Trp fluorescence of N-PrP (in words) (N-PrP (23-111) [10]): unaffected; also recorded: did not alter the trp fluorescence | difference in Tm versus PrP^C alone (moPrP (23-230) [11]): 2.11 °C | melting temperature (Tm) of PrP in presence of compound (moPrP (23-230) [11]): 68.93±0.1 °C and 68.9 °C | N-PrP binding to C-PrP by SPR (in words) [12]: N-PrP interacted with C-PrP only after pre-injection of DS26; also recorded: N-PrP bound to C-PrP that had been pre-treated with DS26 | pIC50 [3]: ~4.82 | inhibition of Aβ oligomer binding to PrP^C by SPR (in words) [3]: inhibited binding of Aβ oligomers to PrP^C in a dose-dependent fashion; also recorded: decreased the binding of Aβ oligomers to PrP^C in a dose-dependent manner; also recorded: prevents binding of Aβ oligomers | reduction of the Aβ oligomer-PrP^C interaction [3]: more than 90% | Trp fluorescence of full-length PrP (in words) (moPrP (23-230) [1]): dose-dependent quenching; also recorded: quenched the trp fluorescence in a dose-dependent manner | far-UV CD spectrum of PrP^C (in words) (moPrP (23-230) [13]): did not detectably alter the CD spectrum of PrP^C; also recorded: does not affect the far-UV CD spectrum | binding to C-PrP (in words) (C-PrP (120-230)): bound; also recorded: binds | inhibition of Aβ oligomer binding to N-PrP (in words) [14]: failed to inhibit the binding of Aβ oligomers to N-PrP | pKd (recombinant C-PrP): 6.52 | competition with / displacement of DS104 (in words) (recombinant C-PrP): able to displace DS104; also recorded: competed with DS104 | release of Aβ oligomers pre-bound to PrP^C (in words) [15]: unable to release Aβ that was already attached to PrP^C; also recorded: unable to dislodge Aβ oligomers | PrP^Sc replication in vitro (in words) (PrP^Sc replication): partially inhibits

O[C@@H]1[C@H](O)[C@H](O)/C(=N\NC(=S)NCc2ccc(F)cc2)[C@H](O)[C@H]1O [DS211]
pKd (recombinant mouse PrP^C): 4.21 | binding to PrP^C by SPR (in words) (recombinant mouse PrP^C): bind to PrP^C

COc1ccc(CCNC(=S)N/N=C2\[C@@H](O)[C@@H](O)[C@@H](O)[C@H](O)[C@H]2O)cc1OC [DS207]
pKd (recombinant mouse PrP^C): 4.19 | binding to PrP^C by SPR (in words) (recombinant mouse PrP^C): bind to PrP^C

O=C1OC(C(O)C(O)CO)C(O)C1O (stereo not drawn) [DS86, 3R,4S-dihydroxy-5S-(1,2,3-trihydroxypropyl)dihydrofuran-2(3H)-one]
binding to PrP^C by SPR (in words) (recombinant mouse PrP^C): lower affinity; also recorded: also bind to PrP^C
